A short description of data set [1]: Human intestinal S9 fraction in vitro stability assay (HInt). The class given is in vitro ADME. Particulars: human intestinal S9 0.1 mg/mL, 1 μM test compound, pH 7.4, 37° C., substrate depletion. The source says: (§1) In particular, the human intestinal S9 fraction in vitro stability assay (HInt) and human hepatocyte in vitro liver metabolism assay (HHep) provide important information regarding the clearance and metabolic activation of these compounds. The human intestinal S9 fraction in vitro stability assay provides a surrogate measure of compound metabolism as it travels across the gut wall; compounds with low CLint values more likely to enter the portal vein and be exposed to the liver. Likewise, the human hepatocyte in vitro liver metabolism assay provides a surrogate measure of compound metabolism when exposed to liver; compounds with high CLint values are more likely to be metabolically activated. For compounds such as prodrugs that release an active species on metabolic activation, high CLint values in human hepatocytes are desirable. Active compounds released in this way inhibit PCSK9 and show improved atherosclerotic properties by increased exposure of the active metabolite in the liver.
Human Intestinal S9 Fraction In Vitro Stability Assay (Hint)
In vitro stability of test compounds in human intestinal S9 fraction was determined by a substrate depletion approach. Frozen PMSF-free human intestinal S9 (BD Gentest) was thawed on wet ice and diluted to the test concentration of 0.1 mg/mL in 100 mM potassium phosphate buffer pH 7.4. Aliquots of diluted intestinal S9 (495 μL, n=2) were added to tubes in a dry heat bath and pre-warmed for 5 min at 37° C. Test compounds were dissolved in DMSO at 30 mM, ordered from the TekCel at 10 mM, and further diluted to 0.1 mM in DMSO. To initiate the reaction, 5 μL of 0.1 mM DMSO stock solution was added to the pre-warmed intestinal S9. The final test compound concentration in the incubation was 1 μM. At each time point (0.25, 5, 10, 20, 40, and 60 min) a 50 μL sample of incubate was removed and transferred to a plate containing 200 μL acetonitrile with internal standard (2 ng/mL terfenadine). After collection of the final time point, sample plates were capped, vortexed, and centrifuged for 5 minutes at approximately 2000×g. 150 μL of supernatant was removed and transferred to a clean storage plate for direct LC-MS/MS analysis. LC-MS/MS analysis was conducted on a Triple Quad 5500 (AB Sciex) with two LC-20AD pumps and CBM-20 controller (Shimadzu) and CTC PAL autosampler (LEAP Technologies). The MS was operated in multiple reaction monitoring mode with simultaneous monitoring for test compound and internal standard. 5 μL of sample was injected on a Kinetex C18 30×2.1 mm column (Phenomenex) and eluted at 0.5 ml/min under the following conditions, where solvent A was water containing 0.1% formic acid and solvent B was acetonitrile containing 0.1% formic acid: hold initial conditions 90% A and 10% B for 0.8 min, ramp to 30% A and 70% B over 1 min, step to 5% A and 95% B over 0.05 min, hold at 5% A and 95% B for 0.15 min, return to initial conditions over 0.1 min, and hold for 0.4 min. Peak areas of test compound and internal standard were quantitated using Analyst 1.5 (AB Sciex) and the ratios of test compound peak area to internal standard peak area (area ratio) were calculated. The natural log of area ratio was plotted versus time and the portion of the curve representing the initial linear rate of test compound depletion was fit using linear regression (IDBS E-Workbook 9.4). The slope of this line was converted to half-life (t1/2=−LN2/slope). Half-life was used to calculate intrinsic apparent clearance (CLint=LN2/(t1/2*(mg protein/ml incubation))).

The nature of data set [2]: Human hepatocyte in vitro liver metabolism assay (HHep). Particulars: cryopreserved human hepatocytes, 0.5 million viable cells per mL, 37° C. The class given is in vitro ADME.
Text: as §1
Human Hepatocyte In Vitro Liver Metabolism Assay (HHep)
In order to determine the rate of metabolism leading to conversion of prodrug into active drug form, experiments utilizing human hepatocytes were performed. Hepatocytes are an ideal in vitro system to monitor hepatic metabolism since these intact cells contain all the hepatic enzymes found in vivo, including phase I enzymes (such as CYPs, aldehyde oxidases, esterases and MAOs) and phase II enzymes (such as UDP-glucuronyltransferases and sulfotransferases). The assay utilizes isolated hepatocytes from human donors incubated with the compound of interest in conditions mimicking physiological conditions where the metabolic stability of the compound is investigated. The experimental protocol is as follows. Vials of cryopreserved human hepatocytes (stored in liquid nitrogen until used for testing) were thawed in a water bath (37 to 40° C.) until nearly thawed, transferred to a conical tube, resuspended by inversion and subsequently centrifuged at 50-90 g at room temperature for 5 min. The supernatant was then discarded and the pellet loosened by gently tapping the end of the conical tube. William's E media was then added to achieve the desired final cell density (0.5 million viable cells per mL), and the hepatocytes were then resuspended in this fresh media. The viable cell count was then determined using the trypan blue exclusion method where a minimum viability of 70% was obtained. At this point, new molecular entities (NME's) were prepared for testing. In brief, the NME was diluted with DMSO such that final incubation concentration of NME was […] and final DMSO content was 0.1%. Assays were conducted in a 384-well format at 37° C. in an incubator held at 95% air to 5% CO2 at 95% relative humidity. The per-well incubation total incubation volume was 20 μL including hepatocytes and NME. The assay was performed using 7 hepatocyte plates where the plates were designated as sampling times 0, 15, 30, 60, 120 and 240 min and include hepatocytes and NME, and a no NME control plate with hepatocytes that was taken at 240 min. Two additional no hepatocyte containing control plates were prepared and subsequently sampled at 0 and 240 min, respectively, and were identical to the hepatocyte containing plates with respect to NME and media composition. The incubations were stopped using acetonitrile and prepared for analytical testing using liquid chromatography mass-spectrometry (LC/MS) detection. Each NME was optimized for LC/MS analytical conditions. A disappearance curve was generated from the sample time point analytical peak areas and compared to control plate results (control plates allow artifacts such as non-hepatocyte mediated decline (e.g., media/condition instability for the NME) to be determined). The slope of the disappearance curve was used to determine metabolic stability expressed CLint. […]

With `CCOC(=O)O[C@@H](C)n1nnnc1-c1c(-c2ccc(C(=O)N(c3ncccc3C)[C@@H]3CCCNC3)cc2)cnn1C` [Example 5a, ethyl (S)-1-{5-[1-methyl-4-(4-{(3-methylpyridin-2-yl)[(3R)-piperidin-3-yl]carbamoyl}phenyl)-1H-pyrazol-5-yl]-1H-tetrazol-1-yl}ethyl carbonate], the microsomal CLint at 1 μM in data set [1] is < 57.8 µL/min/mg. The “HHep CLint” value in data set [2] came out at 57.2 μL/min/mil.
As to `CCOC(=O)O[C@H](C)n1nnnc1-c1c(-c2ccc(C(=O)N(c3ncccc3C)[C@@H]3CCCNC3)cc2)cnn1C` [Example 5b, ethyl (R)-1-{5-[1-methyl-4-(4-{(3-methylpyridin-2-yl)[(3R)-piperidin-3-yl]carbamoyl}phenyl)-1H-pyrazol-5-yl]-1H-tetrazol-1-yl}ethyl carbonate], the microsomal CLint at 1 μM in data set [1] is 86.9 µL/min/mg. The “HHep CLint” value in data set [2] was determined as 85.0 μL/min/mil.
As for `CCOC(=O)O[C@@H](C)n1nnnc1-c1c(-c2ccc(C(=O)N(c3ncccc3Cl)[C@@H]3CCCNC3)cc2)cnn1C` [Example 6, ethyl (S)-1-{5-[1-methyl-4-(4-{(3-chloropyridin-2-yl)[(3R)-piperidin-3-yl]carbamoyl}phenyl)-1H-pyrazol-5-yl]-1H-tetrazol-1-yl}ethyl carbonate], the microsomal CLint at 1 μM in data set [1] was < 57.8 µL/min/mg. For the same compound, the “HHep CLint” value in data set [2] came out at 71.2 μL/min/mil.
Take `CCOC(=O)O[C@@H](C)n1nnnc1-c1c(-c2ccc(C(=O)N(c3ncccc3Cl)[C@@H]3CCCNC3)cc2F)cnn1C` [Example 7, ethyl (S)-1-{5-[4-(4-{(3-chloropyridin-2-yl)[(3R)-piperidin-3-yl]carbamoyl}-2-fluorophenyl)-1-methyl-1H-pyrazol-5-yl]-1H-tetrazol-1-yl}ethyl carbonate]: the microsomal CLint at 1 μM in data set [1] is < 82.9 µL/min/mg. The “HHep CLint” value in data set [2] was 97.6 μL/min/mil.
Taken in the same sequence, the figures for `CCOC(=O)O[C@@H](C)n1nnnc1-c1c(-c2ccc(C(=O)N(c3ncccc3C)[C@@H]3CCCNC3)cc2F)cnn1C` [Example 8, ethyl (S)-1-{5-[4-(4-{(3-methylpyridin-2-yl)[(3R)-piperidin-3-yl]carbamoyl}-2-fluorophenyl)-1-methyl-1H-pyrazol-5-yl]-1H-tetrazol-1-yl}ethyl carbonate] were 116 µL/min/mg and 51.3 μL/min/mil.
Taken in the same sequence, the figures for `CCOC(=O)O[C@@H](C)n1nnnc1-c1c(-c2ccc(C(=O)N(c3ncccc3C)[C@@H]3CCCNC3)nc2)cnn1C` [Example 9, ethyl (S)-1-{5-[1-methyl-4-(6-{(3-methylpyridin-2-yl)[(3R)-piperidin-3-yl]carbamoyl}pyridin-3-yl)-1H-pyrazol-5-yl]-1H-tetrazol-1-yl}ethyl carbonate] were < 57.8 µL/min/mg and 7.0 μL/min/mil.
Turning to `CCOC(=O)O[C@@H](C)n1nnnc1-c1c(-c2ccc(C(=O)N(c3ncccc3Cl)[C@@H]3CCCNC3)nc2)cnn1C` [Example 10, ethyl (S)-1-{5-[4-(6-{(3-chloropyridin-2-yl)[(3R)-piperidin-3-yl]carbamoyl}pyridin-3-yl)-1-methyl-1H-pyrazol-5-yl]-1H-tetrazol-1-yl}ethyl carbonate], in data set [1], the microsomal CLint at 1 μM was < 57.8 µL/min/mg. Further, the “HHep CLint” value in data set [2] was found to be 11.8 μL/min/mil.
`CCOC(=O)O[C@H](C)n1nnnc1-c1c(-c2ccc(C(=O)N(c3ncccc3Cl)[C@@H]3CCCNC3)cc2F)cnn1C` [Example 11, ethyl (R)-1-{5-[4-(4-{(3-chloropyridin-2-yl)[(3R)-piperidin-3-yl]carbamoyl}-2-fluorophenyl)-1-methyl-1H-pyrazol-5-yl]-1H-tetrazol-1-yl}ethyl carbonate] displayed a microsomal CLint at 1 μM in data set [1] of 620 µL/min/mg. Besides, in data set [2], the “HHep CLint” value is >170 μL/min/mil.

The term microsomal CLint denotes the capacity of the preparation to metabolise the compound, expressed as a volume cleared per time.
